We go through twelve compounds from PubChem BioAssay (NCI).

Test systems include OVCAR-5 ovarian; LOX IMVI melanoma; MDA-MB-435; SK-MEL-2 melanoma; NCI-H23 lung; SN12C renal; SNB-19 CNS; DU-145 prostate; HCT-15 colon; OVCAR-4 ovarian; HCC-2998 colon; NCI-H460 lung; HL-60(TB) leukemia.
What all share (assay): NCI tumour cell line growth inhibition, 48 h

Each structure is given as a SMILES string.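 In this assay, cells in 96-well plates receive the compound at five concentrations for 48 hours. Endpoints are linearly interpolated between the surrounding concentrations. Here, GI50 denotes the concentration required for 50% inhibition of growth. TGI: total growth inhibition.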 Bounds are passed on as bounds.

Consider `CC(C)(C)CC(C)(C)NCC(O)COc1ccc(C(C)(C)c2ccc(OCC(O)CNC(C)(C)CC(C)(C)C)cc2)cc1` (centres undefined), for which the TGI is 3.32 µM in the test with OVCAR-5 ovarian; 1.35 µM with LOX IMVI melanoma; 1.73 µM with MDA-MB-435; 3.28 µM in the test on SK-MEL-2 melanoma; 3.14 µM in the test on NCI-H23 lung; 3.04 µM in the test on SN12C renal. The TGI worked out at 3.01 µM in the test on SNB-19 CNS; 2.75 µM in the test with DU-145 prostate; 2.69 µM in the test on HCT-15 colon; 3.23 µM with OVCAR-4 ovarian; 1.21 µM with HCC-2998 colon; 0.782 µM in the test on NCI-H460 lung. For the same compound, the figures for the GI50 in the test with MDA-MB-435 and in the test on DU-145 prostate were 0.513 µM and 1.39 µM, respectively.

Consider `NNS(=O)(=O)c1ccc(/C=C2\NC(=O)NC2=O)cc1`, for which the TGI with OVCAR-5 ovarian, in the test on LOX IMVI melanoma, in the test with MDA-MB-435, in the test with SK-MEL-2 melanoma, in the test with HL-60(TB) leukemia and with NCI-H23 lung was over 100 µM in each case. Moreover, the TGI with SN12C renal, in the test with SNB-19 CNS, in the test on DU-145 prostate, with HCT-15 colon, in the test with OVCAR-4 ovarian and in the test on HCC-2998 colon was over 100 µM in each case.

With `N=C(N)c1ccc(-c2ccc(-c3ccc(Cl)cc3Cl)s2)nc1`, the GI50 in the test on OVCAR-5 ovarian is 1.71 µM; in the test with MDA-MB-435, 1.73 µM; in the test on SK-MEL-2 melanoma, 2.79 µM; in the test on NCI-H23 lung, 1.65 µM; in the test on DU-145 prostate it was 1.85 µM; in the test with HCC-2998 colon, 1.74 µM. Moreover, the TGI is 3.21 µM in the test on OVCAR-5 ovarian; 3.11 µM with MDA-MB-435; 7.32 µM in the test on SK-MEL-2 melanoma; 3.19 µM with NCI-H23 lung; 3.27 µM in the test with DU-145 prostate; 3.17 µM in the test with HCC-2998 colon.

With `Clc1ncnc2c1nc(C#Cc1ccccc1)n2C1CCCCO1` (centres undefined), the TGI in the test on OVCAR-5 ovarian was determined as 4.84 µM; in the test with LOX IMVI melanoma, 4.79 µM; in the test with MDA-MB-435 it was 5.84 µM; with SK-MEL-2 melanoma, 6.49 µM; in the test with HL-60(TB) leukemia, 6.94 µM; with NCI-H23 lung, 4.15 µM. Moreover, the TGI stood at 6.22 µM in the test on SNB-19 CNS; 2.79 µM with DU-145 prostate; 3.75 µM with OVCAR-4 ovarian; 3.54 µM in the test with HCC-2998 colon; 8.09 µM in the test on NCI-H460 lung.

`CCCCCCCCCCCCCCCCCCNc1nc(=O)n(C2CC(OP(=O)(O)OCC3OC(n4cc(F)c(=O)[nH]c4=O)CC3O)C(CO)O2)cc1F` (centres undefined): the TGI is over 100 µM with OVCAR-5 ovarian; over 100 µM in the test with LOX IMVI melanoma; over 100 µM in the test with MDA-MB-435; 71 µM in the test with SK-MEL-2 melanoma; 20.3 µM in the test on HL-60(TB) leukemia; over 100 µM with NCI-H23 lung. Moreover, the TGI in the test with SN12C renal was over 100 µM; in the test with SNB-19 CNS, 30.3 µM; with DU-145 prostate, over 100 µM; in the test with HCT-15 colon, over 100 µM; in the test with OVCAR-4 ovarian, over 100 µM; in the test on HCC-2998 colon, 52.9 µM.

Consider `COc1cc2nc(-c3cccs3)nc(N3C(c4cc(OC)c(OC)c(OC)c4)=NNC(=O)c4ccccc43)c2cc1OC`, for which the TGI is 54.5 µM in the test on OVCAR-5 ovarian; 45.8 µM with LOX IMVI melanoma; 32.1 µM in the test with MDA-MB-435; over 100 µM in the test on SK-MEL-2 melanoma; over 100 µM in the test on HL-60(TB) leukemia; 35.4 µM with NCI-H23 lung. The TGI was 51.3 µM in the test on SN12C renal; 46.3 µM with SNB-19 CNS; 91.1 µM with DU-145 prostate; 47.8 µM in the test with HCT-15 colon; 42.1 µM in the test with OVCAR-4 ovarian; over 100 µM with NCI-H460 lung.

On to `COc1ccc(/C=C2\OC(=O)C(Cl)=C2c2ccc(OC)c(Cl)c2)cc1`, for which the TGI is 90.5 µM in the test with OVCAR-5 ovarian; over 100 µM with LOX IMVI melanoma; 59.9 µM in the test with MDA-MB-435; over 100 µM in the test on SK-MEL-2 melanoma; over 100 µM in the test on HL-60(TB) leukemia; 44.9 µM in the test on NCI-H23 lung. Also, the TGI in the test on SNB-19 CNS was over 100 µM; in the test on DU-145 prostate, over 100 µM; with HCT-15 colon, over 100 µM; in the test with OVCAR-4 ovarian, 51.8 µM; with HCC-2998 colon, over 100 µM; with NCI-H460 lung, 59 µM.

`CCOC(=O)CN1C(=O)C(=O)N(c2ccc(OC)c3ccccc23)C1=O`: the TGI in the test on OVCAR-5 ovarian, in the test on LOX IMVI melanoma, in the test with MDA-MB-435, in the test on SK-MEL-2 melanoma, in the test on HL-60(TB) leukemia and in the test with NCI-H23 lung was over 100 µM in each case. Moreover, the TGI with SN12C renal, with SNB-19 CNS, in the test on DU-145 prostate, in the test with HCT-15 colon, with OVCAR-4 ovarian and in the test with HCC-2998 colon was over 100 µM each time.

As to `COc1cc(-c2nc(SC)nc3c2CCc2ccccc2-3)cc(OC)c1OC`, the TGI in the test on OVCAR-5 ovarian, in the test on LOX IMVI melanoma, in the test with MDA-MB-435, in the test with SK-MEL-2 melanoma, with HL-60(TB) leukemia and with NCI-H23 lung was over 100 µM each time. In addition, the TGI in the test on SN12C renal, with SNB-19 CNS, in the test on DU-145 prostate, in the test on OVCAR-4 ovarian and in the test on HCC-2998 colon was over 100 µM each time.

For `Cn1c2ccccc2c2c3c(c4c5ccccc5n(C)c4c21)C(=O)N(c1ccccc1)C3=O`, the TGI with OVCAR-5 ovarian, in the test on LOX IMVI melanoma, with MDA-MB-435, in the test on SK-MEL-2 melanoma, with NCI-H23 lung and with SN12C renal was over 100 µM in each case. Also, the TGI in the test on SNB-19 CNS, in the test on DU-145 prostate, with HCT-15 colon, with OVCAR-4 ovarian, in the test on HCC-2998 colon and with NCI-H460 lung was over 100 µM throughout.

Turning to `CC1=NN(c2nc(N)nc(-c3cc4ccccc4oc3=N)n2)C(C)(C)C1`, the TGI with OVCAR-5 ovarian was determined as 60.1 µM; in the test with MDA-MB-435, 41.8 µM; in the test with SK-MEL-2 melanoma it was 41.8 µM; in the test with HL-60(TB) leukemia, 46.2 µM; in the test with NCI-H23 lung it was 29.7 µM; in the test on SN12C renal it was 43 µM. In addition, the TGI in the test with SNB-19 CNS was over 100 µM; in the test on DU-145 prostate, 53.7 µM; with HCT-15 colon, 35.9 µM; in the test with OVCAR-4 ovarian it was 31.2 µM; in the test with HCC-2998 colon, 28.8 µM; with NCI-H460 lung it was 34.2 µM.

Take `CCN(CCC#N)C(=O)Nc1ccccc1`: the TGI in the test with OVCAR-5 ovarian, with LOX IMVI melanoma, in the test on MDA-MB-435, with SK-MEL-2 melanoma, in the test with NCI-H23 lung and in the test with SN12C renal was over 100 µM throughout. Besides, the TGI in the test with SNB-19 CNS, in the test on DU-145 prostate, in the test with HCT-15 colon, in the test with OVCAR-4 ovarian, in the test with HCC-2998 colon and in the test with NCI-H460 lung was over 100 µM throughout.
